Data published in the supplement of paper PMC13380429.

What was measured:
[1] = test system: A549-ACE2 infected with SARS-CoV-2; assay: cell count relative to DMSO; higher = less toxic; conditions: 24 h
[2] = test system: Caco-2; assay: cell viability relative to DMSO; higher = less toxic; conditions: 72 h
[3] = test system: Calu-3; assay: as above; conditions: 72 h
[4] = test system: HepG2; assay: as above; conditions: 72 h
[5] = test system: U2OS; assay: as above; conditions: 72 h
[6] = test system: Vero E6; assay: as above; conditions: 72 h
[7] = test system: A549-ACE2 infected with SARS-CoV-2; assay: SARS-CoV-2 infection rate relative to DMSO; higher = more infection; conditions: 24 h
[8] = test system: A549-ACE2; assay: drug-induced phospholipidosis relative to tamoxifen; higher = more phospholipidosis
[9] = test system: A549-ACE2 infected with SARS-CoV-2; assay: morphology score (similarity to uninfected cells); higher = more like uninfected cells; conditions: 24 h
[10] = test system: Caco-2; assay: relative viability EC50 (midpoint between 100% and the lowest measured viability); higher = less toxic; conditions: 72 h
[11] = test system: Calu-3; assay: as above; conditions: 72 h
[12] = test system: HepG2; assay: as above; conditions: 72 h
[13] = test system: U2OS; assay: as above; conditions: 72 h
[14] = test system: Vero E6; assay: as above; conditions: 72 h
[15] = test system: Caco-2; assay: drug sensitivity score (DSS) for viability; higher = more toxic; extreme values may be limits of the assay; conditions: 72 h
[16] = test system: Calu-3; assay: as above; conditions: 72 h
[17] = test system: HepG2; assay: as above; conditions: 72 h
[18] = test system: U2OS; assay: as above; conditions: 72 h
[19] = test system: Vero E6; assay: as above; conditions: 72 h
[20] = test system: A549-ACE2; assay: phospholipidosis EC50; higher = less potent phospholipidosis inducer

CCc1cc2cc(OC)c(OC)cc2c(Cc2ccccc2)n1 [moxaverine]
Conditions	SARS-CoV-2 infection rate, [7] [%]	cell count, [1] [%]	cell viability, [2] [%]	cell viability, [3] [%]	cell viability, [4] [%]	cell viability, [5] [%]	cell viability, [6] [%]	morphology score, [9]
1 nM	–	–	89	95.7	101	101	96.5	–
10 nM	–	–	85.6	92.5	104	95.1	95.4	–
100 nM	–	–	104	95.9	98.5	99.6	92.2	–
0.3 µM	104	99	–	–	–	–	–	-0.15
1000 nM	–	–	90.9	96	103	95.5	95	–
3 µM	95	103	–	–	–	–	–	0.3
10 µM	71	106	–	–	–	–	–	0.51
10000 nM	–	–	105	100	106	96.8	107	–
30 µM	52	109	–	–	–	–	–	0.66

drug-induced phospholipidosis [%], [8]
Conditions	0.3 µM	0.833333 µM	3.33333 µM	6.66667 µM	10 µM	30 µM
24 h	1.12	1.68	0.22	1.38	2.55	6.92
48 h	3.81	1.7	2.59	3.75	3.82	13.6
72 h	4.52	0.631	3.05	3.57	2.15	15.7

Conditions	drug sensitivity score	relative viability EC50 [µM]
[10]	–	> 10
[11]	–	> 10
[12]	–	> 10
[13]	–	> 10
[14]	–	> 10
[15]	0	–
[16]	0	–
[17]	0	–
[18]	0	–
[19]	0	–

CC(CN1c2ccccc2Sc2ccccc21)N(C)C (stereo not drawn) [promethazine]
Conditions	SARS-CoV-2 infection rate [%]	cell count [%]	cell viability [%]	morphology score	phospholipidosis EC50 [µM]
[1], 0.3 µM	–	103	–	–	–
[1], 3 µM	–	112	–	–	–
[1], 10 µM	–	118	–	–	–
[1], 30 µM	–	115	–	–	–
[2], 1 nM	–	–	99.8	–	–
[2], 10 nM	–	–	99	–	–
[2], 100 nM	–	–	106	–	–
[2], 1000 nM	–	–	107	–	–
[2], 10000 nM	–	–	92.7	–	–
[3], 1 nM	–	–	112	–	–
[3], 10 nM	–	–	103	–	–
[3], 100 nM	–	–	98.6	–	–
[3], 1000 nM	–	–	103	–	–
[3], 10000 nM	–	–	96.1	–	–
[4], 1 nM	–	–	119	–	–
[4], 10 nM	–	–	96.4	–	–
[4], 100 nM	–	–	78.1	–	–
[4], 1000 nM	–	–	103	–	–
[4], 10000 nM	–	–	83.3	–	–
[5], 1 nM	–	–	103	–	–
[5], 10 nM	–	–	108	–	–
[5], 100 nM	–	–	97.8	–	–
[5], 1000 nM	–	–	100	–	–
[5], 10000 nM	–	–	94.9	–	–
[6], 1 nM	–	–	101	–	–
[6], 10 nM	–	–	95.5	–	–
[6], 100 nM	–	–	99.4	–	–
[6], 1000 nM	–	–	102	–	–
[6], 10000 nM	–	–	80.5	–	–
[7], 0.3 µM	93	–	–	–	–
[7], 3 µM	51	–	–	–	–
[7], 10 µM	63	–	–	–	–
[7], 30 µM	11	–	–	–	–
[9], 0.3 µM	–	–	–	0.09	–
[9], 3 µM	–	–	–	0.72	–
[9], 10 µM	–	–	–	0.76	–
[9], 30 µM	–	–	–	0.72	–
[20], 24 h	–	–	–	–	7.49
[20], 48 h	–	–	–	–	9.37
[20], 72 h	–	–	–	–	11.1

drug-induced phospholipidosis [%], [8]
Conditions	0.3 µM	0.833333 µM	3.33333 µM	6.66667 µM	10 µM	30 µM
24 h	1.08	0.17	9.69	43.2	62.1	92
48 h	-0.1	0.2	6.54	31.9	55.6	96.7
72 h	1.14	0.443	8.72	23.6	50.4	102

Conditions	drug sensitivity score	relative viability EC50 [µM]
[10]	–	> 10
[11]	–	> 10
[12]	–	> 10
[13]	–	> 10
[14]	–	> 10
[15]	0	–
[16]	0	–
[17]	0.3	–
[18]	0	–
[19]	0.4	–
